Measurements published in ChEMBL document CHEMBL6177986, “A Perspective on the Strategic Application of Deconstruction-Reconstruction in Drug Discovery” (J Med Chem, 2025).

Key:
[1] = molecular target: T1, Phosphatidylinositol 4,5-bisphosphate 3-kinase catalytic subunit delta isoform (Homo sapiens, UniProt O00329); assay: Inhibition of PI3Kdelta (unknown origin)
T1 sequence (O00329 whole entry): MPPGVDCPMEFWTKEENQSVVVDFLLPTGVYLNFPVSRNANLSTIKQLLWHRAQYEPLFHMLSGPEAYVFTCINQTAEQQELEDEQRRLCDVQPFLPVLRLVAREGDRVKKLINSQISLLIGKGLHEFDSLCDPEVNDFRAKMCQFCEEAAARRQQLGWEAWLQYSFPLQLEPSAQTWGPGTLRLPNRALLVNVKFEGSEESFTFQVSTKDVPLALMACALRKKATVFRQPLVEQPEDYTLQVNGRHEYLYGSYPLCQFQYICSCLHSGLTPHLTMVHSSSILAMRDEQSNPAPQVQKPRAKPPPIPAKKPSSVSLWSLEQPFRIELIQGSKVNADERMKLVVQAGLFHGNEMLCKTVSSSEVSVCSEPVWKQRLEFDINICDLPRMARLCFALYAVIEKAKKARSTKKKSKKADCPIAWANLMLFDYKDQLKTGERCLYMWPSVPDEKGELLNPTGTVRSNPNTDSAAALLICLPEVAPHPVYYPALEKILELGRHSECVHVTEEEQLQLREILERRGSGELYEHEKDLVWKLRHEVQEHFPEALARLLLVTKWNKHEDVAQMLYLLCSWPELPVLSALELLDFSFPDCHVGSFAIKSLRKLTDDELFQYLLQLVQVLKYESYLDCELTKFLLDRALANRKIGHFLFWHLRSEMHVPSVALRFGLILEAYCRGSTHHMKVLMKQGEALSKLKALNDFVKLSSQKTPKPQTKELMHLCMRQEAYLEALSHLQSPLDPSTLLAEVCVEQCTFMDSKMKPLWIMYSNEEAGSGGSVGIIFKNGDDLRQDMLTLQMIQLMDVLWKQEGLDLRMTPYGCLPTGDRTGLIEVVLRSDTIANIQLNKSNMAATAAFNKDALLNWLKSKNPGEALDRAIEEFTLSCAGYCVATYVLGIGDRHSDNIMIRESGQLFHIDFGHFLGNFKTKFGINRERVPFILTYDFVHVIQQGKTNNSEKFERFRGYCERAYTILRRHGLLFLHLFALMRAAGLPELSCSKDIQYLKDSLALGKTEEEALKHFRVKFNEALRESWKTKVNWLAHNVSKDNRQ

[2] = molecular target: Phosphatidylinositol 4,5-bisphosphate 3-kinase catalytic subunit alpha isoform (Homo sapiens, UniProt P42336); assay: Inhibition of PI3Kalpha (unknown origin)
[3] = molecular target: Phosphatidylinositol 4,5-bisphosphate 3-kinase catalytic subunit gamma isoform (Homo sapiens, UniProt P48736); assay: Inhibition of PI3Kgamma (unknown origin)
[4] = molecular target: Phosphatidylinositol 4,5-bisphosphate 3-kinase catalytic subunit beta isoform (Homo sapiens, UniProt P42338); assay: Inhibition of PI3Kbeta (unknown origin)
Sequence of Phosphatidylinositol 4,5-bisphosphate 3-kinase catalytic subunit beta isoform (P42338 whole entry, canonical isoform): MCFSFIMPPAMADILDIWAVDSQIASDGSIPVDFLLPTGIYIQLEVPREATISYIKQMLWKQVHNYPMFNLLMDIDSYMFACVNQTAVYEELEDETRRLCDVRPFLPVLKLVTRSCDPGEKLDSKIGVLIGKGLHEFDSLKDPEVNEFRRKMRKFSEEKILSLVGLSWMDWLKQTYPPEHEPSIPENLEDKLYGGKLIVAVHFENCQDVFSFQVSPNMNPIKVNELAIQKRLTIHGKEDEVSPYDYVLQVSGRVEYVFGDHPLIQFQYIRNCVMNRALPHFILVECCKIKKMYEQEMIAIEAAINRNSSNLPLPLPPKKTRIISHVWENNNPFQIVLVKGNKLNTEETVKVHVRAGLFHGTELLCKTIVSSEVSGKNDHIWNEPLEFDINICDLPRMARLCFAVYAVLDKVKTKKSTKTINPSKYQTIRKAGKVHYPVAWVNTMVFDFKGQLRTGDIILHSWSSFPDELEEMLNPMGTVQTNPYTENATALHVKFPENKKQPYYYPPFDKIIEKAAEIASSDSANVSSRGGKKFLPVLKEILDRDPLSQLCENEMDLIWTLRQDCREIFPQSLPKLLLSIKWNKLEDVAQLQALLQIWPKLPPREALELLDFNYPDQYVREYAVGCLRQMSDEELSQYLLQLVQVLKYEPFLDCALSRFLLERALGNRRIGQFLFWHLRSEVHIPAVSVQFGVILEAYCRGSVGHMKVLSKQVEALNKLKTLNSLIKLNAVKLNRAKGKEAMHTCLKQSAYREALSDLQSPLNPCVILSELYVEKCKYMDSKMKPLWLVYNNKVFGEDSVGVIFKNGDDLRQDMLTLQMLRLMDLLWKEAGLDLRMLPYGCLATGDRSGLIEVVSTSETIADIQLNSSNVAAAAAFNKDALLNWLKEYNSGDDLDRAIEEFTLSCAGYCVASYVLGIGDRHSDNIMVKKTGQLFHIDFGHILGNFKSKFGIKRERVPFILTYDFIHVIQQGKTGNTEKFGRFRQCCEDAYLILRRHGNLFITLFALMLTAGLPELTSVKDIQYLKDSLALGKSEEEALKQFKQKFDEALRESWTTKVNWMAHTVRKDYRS

Sequence of Phosphatidylinositol 4,5-bisphosphate 3-kinase catalytic subunit gamma isoform (P48736 whole entry, canonical isoform): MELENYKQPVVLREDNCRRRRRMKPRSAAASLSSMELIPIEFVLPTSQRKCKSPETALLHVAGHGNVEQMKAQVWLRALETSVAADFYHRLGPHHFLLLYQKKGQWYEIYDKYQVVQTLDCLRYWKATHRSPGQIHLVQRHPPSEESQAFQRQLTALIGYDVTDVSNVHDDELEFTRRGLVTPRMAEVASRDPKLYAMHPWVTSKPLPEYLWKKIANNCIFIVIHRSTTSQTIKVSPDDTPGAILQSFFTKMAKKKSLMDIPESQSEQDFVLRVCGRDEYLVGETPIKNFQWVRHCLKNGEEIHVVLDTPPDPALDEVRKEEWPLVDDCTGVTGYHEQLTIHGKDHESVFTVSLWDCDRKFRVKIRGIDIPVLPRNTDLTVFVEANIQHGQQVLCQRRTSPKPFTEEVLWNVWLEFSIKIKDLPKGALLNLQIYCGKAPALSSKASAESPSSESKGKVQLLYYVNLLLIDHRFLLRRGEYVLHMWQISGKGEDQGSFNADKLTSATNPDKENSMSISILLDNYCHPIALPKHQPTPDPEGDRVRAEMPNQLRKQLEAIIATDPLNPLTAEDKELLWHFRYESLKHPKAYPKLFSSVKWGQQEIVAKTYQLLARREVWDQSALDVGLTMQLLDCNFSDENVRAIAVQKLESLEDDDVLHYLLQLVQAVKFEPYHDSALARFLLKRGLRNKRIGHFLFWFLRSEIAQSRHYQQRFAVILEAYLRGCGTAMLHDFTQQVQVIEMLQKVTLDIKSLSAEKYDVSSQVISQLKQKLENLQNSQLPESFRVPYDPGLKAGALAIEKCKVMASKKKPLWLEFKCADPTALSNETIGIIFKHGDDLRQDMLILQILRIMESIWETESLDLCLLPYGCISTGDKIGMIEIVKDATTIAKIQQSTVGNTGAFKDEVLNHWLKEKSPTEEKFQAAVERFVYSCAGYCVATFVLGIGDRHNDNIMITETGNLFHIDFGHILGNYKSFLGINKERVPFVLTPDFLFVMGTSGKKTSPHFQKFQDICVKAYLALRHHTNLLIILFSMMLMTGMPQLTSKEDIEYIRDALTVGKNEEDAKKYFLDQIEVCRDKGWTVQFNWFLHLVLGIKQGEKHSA
Sequence of Phosphatidylinositol 4,5-bisphosphate 3-kinase catalytic subunit alpha isoform (P42336 whole entry, canonical isoform): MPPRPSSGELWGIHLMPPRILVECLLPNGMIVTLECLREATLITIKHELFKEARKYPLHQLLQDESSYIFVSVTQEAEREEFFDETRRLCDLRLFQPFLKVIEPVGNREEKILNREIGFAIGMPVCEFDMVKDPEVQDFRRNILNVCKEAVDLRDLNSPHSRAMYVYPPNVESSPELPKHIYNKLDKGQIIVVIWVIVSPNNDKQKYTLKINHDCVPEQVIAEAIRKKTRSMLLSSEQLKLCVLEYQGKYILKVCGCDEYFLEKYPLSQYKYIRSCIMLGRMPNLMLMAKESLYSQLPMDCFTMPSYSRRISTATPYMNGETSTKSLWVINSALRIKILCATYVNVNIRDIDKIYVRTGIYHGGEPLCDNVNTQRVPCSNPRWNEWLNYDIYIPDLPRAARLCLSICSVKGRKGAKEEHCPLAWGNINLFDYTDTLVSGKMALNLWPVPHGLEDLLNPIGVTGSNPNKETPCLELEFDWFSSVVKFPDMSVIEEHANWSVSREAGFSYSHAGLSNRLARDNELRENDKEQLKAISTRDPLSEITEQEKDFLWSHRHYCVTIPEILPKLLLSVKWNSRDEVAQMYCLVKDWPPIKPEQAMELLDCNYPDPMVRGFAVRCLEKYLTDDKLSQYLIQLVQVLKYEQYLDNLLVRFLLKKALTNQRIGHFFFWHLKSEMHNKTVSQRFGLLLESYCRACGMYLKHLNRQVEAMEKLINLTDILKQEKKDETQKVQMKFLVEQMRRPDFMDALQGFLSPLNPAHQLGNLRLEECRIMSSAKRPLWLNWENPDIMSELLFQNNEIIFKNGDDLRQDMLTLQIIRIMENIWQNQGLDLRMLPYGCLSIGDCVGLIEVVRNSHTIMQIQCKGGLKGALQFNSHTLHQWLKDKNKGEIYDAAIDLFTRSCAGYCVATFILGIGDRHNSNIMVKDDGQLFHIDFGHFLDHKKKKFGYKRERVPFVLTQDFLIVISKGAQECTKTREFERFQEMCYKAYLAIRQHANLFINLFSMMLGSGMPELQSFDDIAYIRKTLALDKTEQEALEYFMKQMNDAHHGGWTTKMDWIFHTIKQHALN

Row | IC50 [1] [µM] | IC50 [2] [µM] | IC50 [3] [µM] | IC50 [4] [µM] | SMILES
1 | 0.006 |  |  |  | COc1ncc(C2=CCOCC2)cc1NS(=O)(=O)c1cn(Cc2ccccc2)c(C)n1
2 | 0.16 | 2.5 | 0.79 | 2.5 | COc1ncc(-c2ccc3ccncc3c2)cc1NS(C)(=O)=O
3 |  | > 50 | > 50 | > 50 | c1cc(-c2ccncc2)c2cc[nH]c2c1
4 | 0.25 | 6.3 | 2.5 | 0.79 | COc1ncc(-c2ccncc2)cc1NS(C)(=O)=O
5 |  | > 32 |  |  | c1cc(-c2ccc3ccncc3c2)c2cc[nH]c2c1
